Results taken from ChEMBL document CHEMBL1136236, “Design and parallel synthesis of piperidine libraries targeting the nociceptin (N/OFQ) receptor” (Bioorg Med Chem Lett, 2003).
Active and inactive are the calls of the source. The rule behind the calls is not given here.

Experiments:
[1] = target: T1, Kappa-type opioid receptor (Homo sapiens, UniProt P41145); assay: Antagonistic activity against opioid receptor kappa 1; type: functional
[2] = target: T2, Nociceptin receptor (Homo sapiens, UniProt P41146); assay: Binding affinity against human orphanin FQ receptor expressed in recombinant HEK 293 cells; type: cell-based, HEK293
[3] = target: T2, Nociceptin receptor; assay: Inhibitory activity against human orphanin FQ receptor expressed in recombinant HEK 293 cells; type: cell-based; parameters: concentration or dose not given beside the values; conditions: HEK293; concentration not given here
[4] = target: T3, Delta-type opioid receptor (Homo sapiens, UniProt P41143); assay: Antagonistic activity against Opioid receptor delta 1; type: functional
[5] = target: T1, Kappa-type opioid receptor; assay: Antagonistic activity against opioid receptor kappa 1; not active; type: functional
[6] = target: T4, Mu-type opioid receptor (Homo sapiens, UniProt P35372); assay: Selectivity ratio of Opioid receptor mu 1 binding to Orphanin FQ receptor
[7] = target: T2, Nociceptin receptor; assay: Antagonistic activity against orphan FQ receptor; type: functional
[8] = target: T4, Mu-type opioid receptor; assay: Antagonistic activity against opioid receptor mu1; type: functional
[9] = target: T2, Nociceptin receptor; assay: Inhibitory activity against human orphanin FQ receptor expressed in recombinant HEK 293 cells; in active; type: cell-based; conditions: HEK293
[10] = target: T3, Delta-type opioid receptor; assay: Antagonistic activity against Opioid receptor delta 1; not active; type: functional
[11] = target: T2, Nociceptin receptor; assay: Inhibitory activity against human orphanin FQ receptor expressed in recombinant HEK 293 cells; inactive; type: cell-based; conditions: HEK293

T1 sequence (P41145 whole entry): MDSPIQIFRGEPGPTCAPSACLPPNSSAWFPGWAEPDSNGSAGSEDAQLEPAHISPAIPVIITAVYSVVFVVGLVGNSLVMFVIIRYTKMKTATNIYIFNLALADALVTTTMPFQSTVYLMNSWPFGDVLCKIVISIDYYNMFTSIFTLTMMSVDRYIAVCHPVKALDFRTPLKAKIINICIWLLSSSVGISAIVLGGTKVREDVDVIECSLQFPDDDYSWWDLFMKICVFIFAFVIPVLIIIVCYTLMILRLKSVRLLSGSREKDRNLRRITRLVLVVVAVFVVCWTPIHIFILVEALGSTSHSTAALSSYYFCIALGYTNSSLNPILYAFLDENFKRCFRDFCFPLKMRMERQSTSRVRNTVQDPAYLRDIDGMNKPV
T3 sequence (P41143 whole entry): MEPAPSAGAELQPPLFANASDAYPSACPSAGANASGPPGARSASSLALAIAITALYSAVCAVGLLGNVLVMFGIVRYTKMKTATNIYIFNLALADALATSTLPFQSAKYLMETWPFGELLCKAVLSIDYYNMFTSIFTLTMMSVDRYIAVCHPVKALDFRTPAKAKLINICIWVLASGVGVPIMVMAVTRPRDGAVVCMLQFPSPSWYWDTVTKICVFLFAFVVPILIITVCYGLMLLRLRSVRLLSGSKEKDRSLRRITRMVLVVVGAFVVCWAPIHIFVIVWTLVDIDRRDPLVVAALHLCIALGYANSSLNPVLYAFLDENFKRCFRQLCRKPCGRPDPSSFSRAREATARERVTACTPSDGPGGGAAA
T2 sequence (P41146 whole entry): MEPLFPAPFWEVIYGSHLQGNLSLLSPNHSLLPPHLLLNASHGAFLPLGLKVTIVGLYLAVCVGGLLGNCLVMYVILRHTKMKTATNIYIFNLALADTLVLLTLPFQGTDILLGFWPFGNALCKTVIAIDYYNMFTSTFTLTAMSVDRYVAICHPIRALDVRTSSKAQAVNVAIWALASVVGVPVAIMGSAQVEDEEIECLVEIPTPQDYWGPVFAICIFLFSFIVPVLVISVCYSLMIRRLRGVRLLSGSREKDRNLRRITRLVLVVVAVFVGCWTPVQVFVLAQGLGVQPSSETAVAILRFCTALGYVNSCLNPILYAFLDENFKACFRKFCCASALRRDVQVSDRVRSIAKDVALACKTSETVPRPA
T4 sequence (P35372 whole entry): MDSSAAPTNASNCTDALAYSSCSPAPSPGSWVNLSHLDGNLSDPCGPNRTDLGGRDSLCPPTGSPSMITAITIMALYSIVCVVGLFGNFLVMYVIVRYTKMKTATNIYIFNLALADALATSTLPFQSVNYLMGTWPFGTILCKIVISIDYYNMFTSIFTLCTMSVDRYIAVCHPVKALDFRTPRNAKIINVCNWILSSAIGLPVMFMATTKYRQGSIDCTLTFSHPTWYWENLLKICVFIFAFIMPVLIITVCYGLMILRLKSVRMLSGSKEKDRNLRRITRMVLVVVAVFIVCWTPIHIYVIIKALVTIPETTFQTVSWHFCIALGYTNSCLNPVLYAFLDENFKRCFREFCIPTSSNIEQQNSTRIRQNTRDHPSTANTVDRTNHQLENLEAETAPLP

Compound | Ki [2] [µM] | inhibition [3] [%] | Selectivity ratio [6] | Ki [7] [µM] | Ki [8] [µM] | other results
CC(C)C1CCC(N2CCC(O)(c3cccc(C(F)(F)F)c3)CC2)CC1 (configuration not stated) |  |  |  |  |  | Ki [1]: 4.15 µM
OC1(c2ccc(Cl)c(C(F)(F)F)c2)CCN(Cc2ccc(C(F)(F)F)cc2)CC1 | 1.19 | 55 |  |  |  | 
OC1(c2cccc(C(F)(F)F)c2)CCN(Cc2ccc3ccccc3c2)CC1 | 0.715 | 85 |  |  |  | 
CC(C)C1CCC(N2CCC(O)(c3ccc(Cl)c(C(F)(F)F)c3)CC2)CC1 (configuration not stated) |  |  | 0.24 | 0.033 | 0.008 | Ki [4]: 10 µM; Ki [5]: Not Active
OC1(c2cccc(C(F)(F)F)c2)CCN(C2CCC3CCCCC3C2)CC1 (configuration not stated) |  |  | 1.75 | 0.012 | 0.021 | Ki [4]: 10 µM; Ki [5]: Not Active
OC1(c2cccc(C(F)(F)F)c2)CCN(Cc2ccc(F)cc2)CC1 | 0.692 | 80 |  |  |  | 
N#CC1(c2ccccc2)CCN(Cc2ccc(Cl)c(Cl)c2)CC1 | 1.27 | 65 |  |  |  | 
OC1(c2ccc(Cl)c(C(F)(F)F)c2)CCN(CC2CCCCCCC2)CC1 |  |  | 2.64 | 0.047 | 0.124 | Ki [4]: 8.78 µM; Ki [1]: 1.65 µM
N#Cc1ccc(CN2CCC(O)(c3ccc(Cl)c(C(F)(F)F)c3)CC2)cc1 | > 10 |  |  |  |  | inhibition [9]: inactive
OC1(c2cccc(C(F)(F)F)c2)CCN(CC2CCCCCCC2)CC1 |  |  | 1.11 | 0.102 | 0.113 | Ki [1]: 4.24 µM; Ki [10]: Not Active
OC1(c2ccc(Cl)c(C(F)(F)F)c2)CCN(Cc2ccc3ccccc3c2)CC1 | 0.879 | 70 |  |  |  | 
OC1(c2ccc(Cl)c(C(F)(F)F)c2)CCN(C2Cc3ccccc3C2)CC1 |  |  | 0.23 | 0.082 | 0.019 | Ki [4]: 10 µM; Ki [5]: Not Active
OC1(c2ccc(Cl)cc2)CCN(Cc2ccc(C(F)(F)F)cc2)CC1 | 0.307 | 85 |  |  |  | 
O=[N+]([O-])c1ccc(CN2CCC(O)(c3ccc(Cl)c(C(F)(F)F)c3)CC2)o1 | > 10 |  |  |  |  | inhibition [11]: inactive
OC1(c2ccc(Cl)cc2)CCN(Cc2ccc3ccccc3c2)CC1 | 0.153 | 90 |  |  |  | 
N#CC1(c2ccccc2)CCN(Cc2ccc3ccccc3c2)CC1 | 1.11 | 70 |  |  |  | 
OC1(c2ccc(Cl)c(C(F)(F)F)c2)CCN(Cc2ccc(F)cc2)CC1 | 0.234 | 90 |  |  |  | 
CCCC1CCC(N2CCC(O)(c3cccc(C(F)(F)F)c3)CC2)CC1 (configuration not stated) |  |  | 0.34 | 0.135 | 0.046 | Ki [1]: 6 µM; Ki [10]: Not Active
OC1(c2cccc(C(F)(F)F)c2)CCN(CCC(c2ccccc2)c2ccccc2)CC1 |  |  | 0.01 | 0.116 | 0.001 | Ki [4]: 9.39 µM; Ki [5]: Not Active
N#CC1(c2ccccc2)CCN(Cc2ccc(F)cc2)CC1 | > 10 | 55 |  |  |  | 
OC1(c2ccc(Cl)cc2)CCN(CC2CCCCCCC2)CC1 |  |  | 1.25 | 0.502 | 0.626 | Ki [5]: Not Active; Ki [10]: Not Active
O=C(COCc1ccccc1)N1CCC(O)(c2ccc(Br)cc2)CC1 | > 10 | 50 |  |  |  | 
Cc1ccc2ccccc2c1CN1CCC(C#N)(c2ccccc2)CC1 | > 10 |  |  |  |  | inhibition [11]: inactive
OC1(c2cccc(C(F)(F)F)c2)CCN(Cc2ccc(C(F)(F)F)cc2)CC1 | 6.52 |  |  |  |  | 
N#CC1(c2ccccc2)CCN(Cc2cccc3ccccc23)CC1 | 0.827 | 55 |  |  |  | 
OC1(c2ccc(Cl)c(C(F)(F)F)c2)CCN(CCC(c2ccccc2)c2ccccc2)CC1 |  |  | 0.02 | 0.225 | 0.004 | Ki [5]: Not Active; Ki [10]: Not Active
